This note sets out measurements from patent US20260008768A1, “UREA DERIVATIVES FOR INHIBITING NLRP3 AND USES THEREOF” (VENTUS THERAPEUTICS U.S., INC., priority 2023, published 2026).

One may read the IC50 as the point on the concentration scale where inhibition reaches its midpoint.

Structures are written as SMILES.

Assay [1] deals with T1, human NLRP3 (Homo sapiens, UniProt Q96P20). In words: Scintillation Proximity (SPA) NLRP3 Assay, displacement of 3H-MCC950. The class given is binding. As to conditions: for IC50: displacement of 3H-MCC950 from human NLRP3. The procedure, abridged:
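Human NLRP3 (350 nM) preincubated 15 min at RT with compound (5% DMSO final) in HEPES pH 7.5 buffer with 100 μM ADP, then 125 nM 3H-MCC950 added for 60 min. Copper PVT SPA beads added; counts read 6 h later. Specific binding = signal minus no-protein wells, duplicates averaged; IC50 reported.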
(In general: Scintillation proximity formats need no separation of bound from free tracer.)

The target in the next assay is T2, mouse NLRP3 (Mus musculus, UniProt Q8R4B8).
T2 construct: from tissue; host or cells: whole blood of female CD1 mice
Kind of assay: Mouse Whole Blood (mWB) NLRP3 Assay (LPS/ATP, IL-1b). The class given is cell-based. Here is the method:
Reagents: The following reagents were used: blood collection tubes (Heparin); U-bottom 96-well tissue culture (Falcon 353077); HBSS for LPS, ATP and compound dilutions (Gibco 24020-117); and LPS, E. coli serotype O26:B6 (Sigma L-2654).
Mouse IL-1b MSD assay: Blood was drawn from female CD1 mice (9 to 10 weeks) by cardiac puncture. Blood was plated (135 μL) per well in 96-well U-bottom plates. 7.5 μL of 20×LPS (20 μg/mL, final concentration of 1 μg/mL) was added and mixed by gentle pipetting, and the mixture was incubated in a TC incubator for five hours. 7.5 μL of 20× compound or vehicle per well was added and mixed by gentle pipetting. Compounds were diluted 1/50 in HBSS to prepare a 20× dilution curve in 2% DMSO. The mixture was incubated for 30 minutes in a TC incubator with shaking (450 rpm). 5 μl of 31×ATP (155 mM, final concentration of 5 mM) was added and mixed by gentle pipetting. The mixture was incubated in a TC incubator for 30 minutes with shaking (450 rpm). The plate was centrifuged for 10 minutes at 800×g and ˜70 μL of plasma was removed. Plasma was frozen if required. Mouse IL-1b was analyzed with IL-1b MSD assay (K152TUK).
Compounds were added 30 minutes before priming the cells with LPS when TNFα was required to be quantified in the cytokine panel to confirm selectivity.
mWB NLRP3 IC50 assay results, as a measurement of whole blood potency, are provided in Table B. “A” activity=<1 uM; “B” activity=1-2 uM; “C” activity=>2-3 uM; “D” activity=>3 uM.

The target of assay [2] is T1, human NLRP3. In words: Human Whole Blood (hWB) NLRP3 Assay (LPS/ATP, IL-1β). In kind it is cell-based. More on the design: host or cells: human whole blood from healthy volunteers (A3). The method, boiled down:
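Heparinized healthy-donor human whole blood primed with LPS 1 μg/ml for 4.5 h, with compound added 30 min before ATP activation, or compound added 30 min before 5 h LPS priming. ATP stimulation for 30 min at 37 °C, then plasma IL-1β measured by MSD immunoassay to give IC50.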

T2 sequence (Q8R4B8 whole entry): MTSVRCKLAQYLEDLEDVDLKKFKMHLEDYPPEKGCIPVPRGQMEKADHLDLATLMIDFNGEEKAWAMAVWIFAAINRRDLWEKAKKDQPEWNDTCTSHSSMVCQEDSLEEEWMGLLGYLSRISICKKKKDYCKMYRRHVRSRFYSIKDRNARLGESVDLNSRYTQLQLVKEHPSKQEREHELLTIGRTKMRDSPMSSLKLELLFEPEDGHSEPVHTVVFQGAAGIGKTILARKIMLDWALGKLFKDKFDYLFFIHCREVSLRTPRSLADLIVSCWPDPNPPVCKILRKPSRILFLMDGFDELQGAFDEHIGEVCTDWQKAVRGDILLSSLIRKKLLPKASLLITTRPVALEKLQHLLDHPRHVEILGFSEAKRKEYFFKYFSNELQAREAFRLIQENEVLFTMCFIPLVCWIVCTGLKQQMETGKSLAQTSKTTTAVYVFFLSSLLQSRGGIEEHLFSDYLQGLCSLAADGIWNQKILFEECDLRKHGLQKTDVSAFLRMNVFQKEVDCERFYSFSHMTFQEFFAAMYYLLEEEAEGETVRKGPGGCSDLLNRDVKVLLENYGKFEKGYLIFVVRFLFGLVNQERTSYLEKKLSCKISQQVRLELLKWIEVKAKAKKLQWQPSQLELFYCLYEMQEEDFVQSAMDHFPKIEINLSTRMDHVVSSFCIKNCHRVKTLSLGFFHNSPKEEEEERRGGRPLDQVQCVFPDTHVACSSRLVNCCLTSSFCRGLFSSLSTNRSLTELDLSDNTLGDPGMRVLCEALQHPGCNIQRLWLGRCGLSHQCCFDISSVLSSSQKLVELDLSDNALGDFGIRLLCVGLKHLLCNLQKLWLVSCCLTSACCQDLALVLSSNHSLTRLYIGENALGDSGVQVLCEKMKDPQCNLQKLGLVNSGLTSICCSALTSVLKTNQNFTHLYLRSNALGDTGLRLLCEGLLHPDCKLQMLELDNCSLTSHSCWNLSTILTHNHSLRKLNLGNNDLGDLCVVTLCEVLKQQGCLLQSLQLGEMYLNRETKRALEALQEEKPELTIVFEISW
T1 sequence (Q96P20 whole entry): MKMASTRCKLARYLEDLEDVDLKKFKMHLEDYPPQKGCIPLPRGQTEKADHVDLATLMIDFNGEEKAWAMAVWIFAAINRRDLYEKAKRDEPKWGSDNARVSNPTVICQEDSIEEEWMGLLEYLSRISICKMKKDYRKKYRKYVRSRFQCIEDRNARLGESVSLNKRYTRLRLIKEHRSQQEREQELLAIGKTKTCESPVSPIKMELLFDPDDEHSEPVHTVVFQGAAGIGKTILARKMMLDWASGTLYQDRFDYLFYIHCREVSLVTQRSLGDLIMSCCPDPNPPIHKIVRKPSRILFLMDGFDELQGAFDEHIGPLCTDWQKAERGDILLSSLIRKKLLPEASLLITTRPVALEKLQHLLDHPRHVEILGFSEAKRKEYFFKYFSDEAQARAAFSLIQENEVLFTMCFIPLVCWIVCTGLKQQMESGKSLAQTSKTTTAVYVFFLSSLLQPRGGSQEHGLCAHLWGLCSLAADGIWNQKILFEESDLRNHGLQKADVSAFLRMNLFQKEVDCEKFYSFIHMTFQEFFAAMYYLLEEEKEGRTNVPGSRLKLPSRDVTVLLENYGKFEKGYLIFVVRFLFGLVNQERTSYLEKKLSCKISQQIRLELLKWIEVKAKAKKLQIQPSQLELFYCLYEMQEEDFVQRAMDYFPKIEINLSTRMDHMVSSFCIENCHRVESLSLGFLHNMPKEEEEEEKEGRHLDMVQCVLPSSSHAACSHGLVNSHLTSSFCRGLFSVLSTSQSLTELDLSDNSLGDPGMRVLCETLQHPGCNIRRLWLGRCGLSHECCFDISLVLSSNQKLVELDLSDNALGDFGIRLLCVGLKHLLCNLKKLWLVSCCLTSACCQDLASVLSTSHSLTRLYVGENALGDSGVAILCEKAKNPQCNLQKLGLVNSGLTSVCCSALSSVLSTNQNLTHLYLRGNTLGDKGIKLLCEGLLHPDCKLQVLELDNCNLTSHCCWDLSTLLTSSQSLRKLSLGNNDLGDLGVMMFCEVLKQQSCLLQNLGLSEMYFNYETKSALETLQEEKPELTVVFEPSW

Consider `C[C@@H]1CCN(c2nnn[nH]2)C[C@H](NC(=O)N(C)c2ccc(Cl)cc2)C1` (single isomer, unassigned) [4A*], for which the IC50 on human NLRP3 [1] (Table B, activity class) is less than 1 µM; on human NLRP3 [1] (Table C), 0.096 µM; on mouse NLRP3 (Table B, activity class) it was less than 1 µM; against mouse NLRP3 (Table C), 0.04 µM; against human NLRP3 [2] (Table B, activity class), less than 1 µM; against human NLRP3 [2] (Table C), 0.15 µM. Besides, the “fold improvement in binding activity (SPA IC50)” value on human NLRP3 [1] (relative to Comparative Example B1) was more than 1950 fold.
With `C[C@@H]1CCN(c2nnn[nH]2)C[C@H](NC(=O)N(C)c2ccc(OC(F)(F)F)cc2)C1` (single isomer, unassigned) [10A*], the IC50 is less than 1 µM at human NLRP3 [1] (Table B, activity class); 0.2 µM on human NLRP3 [1] (Table C); less than 1 µM against mouse NLRP3 (Table B, activity class); 0.095 µM at mouse NLRP3 (Table C); less than 1 µM on human NLRP3 [2] (Table B, activity class); 0.3 µM against human NLRP3 [2] (Table C).
On to `C[C@@H]1CCN(c2nnn[nH]2)C[C@H](NC(=O)N(C)c2ccc(OC(F)F)cc2)C1` (single isomer, unassigned) [11A*], for which the IC50 at human NLRP3 [1] (Table B, activity class) was less than 1 µM; on human NLRP3 [1] (Table C) it was 0.14 µM; against mouse NLRP3 (Table B, activity class), less than 1 µM; against mouse NLRP3 (Table C) it was 0.026 µM; against human NLRP3 [2] (Table B, activity class), less than 1 µM; on human NLRP3 [2] (Table C), 0.058 µM. Also, at human NLRP3 [1] (relative to Compound 39A), the “fold increase in binding activity (SPA IC50)” value is listed as 5.9 fold.
